From PubChem BioAssay AID489016 (The Scripps Research Institute Molecular Screening Center, 2010)

Tested on: P. falciparum 3D7 in RBCs, 3H-hypoxanthine incorporation, 48 h
Assay: P. falciparum blood-stage growth inhibition potency, dose response, M17LAP inhibitor project, cell-based, radiolabel, RBCs, powder sample, late stage (AID 489016)

Question: With `CCCCOc1ccc(CC(=O)NO)cc1` as the compound, how does the IC50 read?
Answer: 1.7 µM
